Results from patent US20240025919A1, “AZA-TETRACYCLIC OXAZEPINE COMPOUNDS AND USES THEREOF” (Genentech, Inc., priority 2022, published 2024).
“And” between values parts separate entries of the source, which are not always exact repeats. Equal entries are not always repeated. Where two headings read alike, the source gives them in different places.

Columns and labels:
KRAS WT [1] = molecular target: T1, KRAS WT (Homo sapiens (Human), UniProt P01116); test: KRAS WT Biochemical Assay, BODIPY-GDP Exchange TR-FRET (Example 501; 3 nM KRAS WT, 3 nM SOS1, 60-minute incubation); details: read-out: KRas(wt) GDP HTRF IC50
T1 sequence (P01116-2 other isoform, or with tags, fused parts or gaps): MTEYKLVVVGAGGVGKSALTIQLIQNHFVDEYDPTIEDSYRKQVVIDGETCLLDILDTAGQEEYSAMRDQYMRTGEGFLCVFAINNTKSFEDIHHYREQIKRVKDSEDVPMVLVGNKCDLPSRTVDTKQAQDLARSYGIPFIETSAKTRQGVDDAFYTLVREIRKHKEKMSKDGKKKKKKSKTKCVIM
Procedure, shortened: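 SOS1-mediated exchange assay: 3 nM biotin-KRAS WT with terbium-streptavidin, started with 3 nM SOS1 and 300 nM BODIPY-GDP, HEPES pH 7.5 with MgCl2. TR-FRET (520/490 nm) read after 60 min; normalized to DMSO and full-inhibition control, IC50 from 4-parameter Hill fit.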

KRAS G12D = KRAS G12D (Homo sapiens (Human), UniProt P01116, G12D); test: KRAS G12D LoEnz Biochemical Assay, BODIPY-GDP Exchange TR-FRET (SOS1-mediated nucleotide exchange); details: read-out: KRas (G12D) GDP HTRF IC50
Sequence of KRAS G12D (P01116-2 other isoform, or with tags, fused parts or gaps G12D): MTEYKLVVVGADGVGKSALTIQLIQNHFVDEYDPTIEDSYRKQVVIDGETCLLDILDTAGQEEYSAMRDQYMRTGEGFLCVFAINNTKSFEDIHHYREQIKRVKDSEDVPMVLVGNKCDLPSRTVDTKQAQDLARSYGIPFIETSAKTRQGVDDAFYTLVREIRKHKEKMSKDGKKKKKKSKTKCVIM

KRAS WT [2] = molecular target: T1, KRAS WT; test: KRAS WT Biochemical Assay, BODIPY-GDP Exchange TR-FRET (Example 502; 0.06 nM KRAS WT, 15 nM GDP, 300 nM SOS1, 120-minute incubation); details: read-out: KRas HTRF IC50
Procedure, shortened: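 Biotin-tagged recombinant KRAS WT (0.06 nM) preloaded with 15 nM GDP and Tb-streptavidin, 10 min RT, then exchange started with 300 nM SOS1 plus 300 nM BODIPY-GDP in HEPES pH 7.5 buffer with MgCl2. TR-FRET 520/490 ratio read after 120 min; normalized to DMSO and full-inhibition control; IC50 from 4-parameter fit.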

[3] = test system: PC-9 (KRAS wild type human lung adenocarcinoma cell line); test: KRAS 3D-Cell Proliferation Assay, PC-9 (CellTiter-Glo 3D, 7 days); assay type: cell-based; details: PC-9 3D culture, read-out: Prolif PC9 3D ATP IC50
Method: Example 503: KRAS 3D-Cell Proliferation Assays. Cellular potencies of compounds are assessed by evaluating inhibition of proliferation in 3D cultures of homozygous mutant KRAS G12D human pancreatic cell lines (AsPC-1 and HPAC) as compared to a KRAS wild type human lung adenocarcinoma cell line (PC-9 and/or H1975). Cells are seeded into 384-well black round-bottom, ultra-low attachment assay plates in 50 uL cell growth medium (RPMI-1640 with 10% fetal bovine serum and 2 mM L-glutamine). After overnight incubation at 37° C. and 5% CO2, compounds solubilized in DMSO are added as dilution series to the wells in a total volume of 150 nL (0.3% DMSO final). The cells are incubated for 7 days at 37° C. and 5% CO2. Cell proliferation is quantitated by addition of 40 uL/well of CellTiter-GloO 3D (Promega), and the well contents are mixed 20× at high speed using liquid handling automation workstation (Bravo with 384-well head) and centrifuged at 1500 rpm for 2 minutes to eliminate bubbles. This reagent in combination with mechanical disruption releases the cellular ATP to promote activity in a luciferase-based enzyme/substrate chemiluminescent detection system. After a 30-minute incubation under ambient conditions with shaking and an additional 10 minutes without shaking, the luminescence is read on a plate reader (e.g. EnVision [PerkinElmer]). The results are normalized to percent inhibition based on the following control samples: DMSO (0% inhibition) and 1 uM staurosporine (100% inhibition). The normalized luminescence results are plotted against compound concentration, and the data are fit to a 4-parameter Hill equation to determine the IC50 values.

| Structure (SMILES) | IC50 (KRAS WT [1]) [nM] | IC50 (KRAS G12D) | IC50 (KRAS WT [2]) | IC50 ([3]; Homo sapiens, PC-9, 168 h) [µM] | IC50 [3] [µM] |
| --- | --- | --- | --- | --- | --- |
| C#Cc1cccc2cc(O)cc(-c3nc4c5c(nc(OC[C@@]67CCCN6C[C@H](F)C7)nc5c3F)N3C[C@H]5CC[C@H](N5)[C@H]3CO4)c12 [Compound 3, 5-ethynyl-4-((5aS,6S,9R)-1-fluoro-12-(((2R,7aS)-2-fluorotetrahydro-1H-pyrrolizin-7a(5H)-yl)methoxy)-5a,6,7,8,9,10-hexahydro-5H-4-oxa-3,10a,11,13,14-pentaaza-6,9-methanonaphtho[1,8-ab]heptalen-2-yl)naphthalen-2-ol] | 0.517 | 0.058 nM | 0.757 nM | 20 | – |
| Cc1cc(N)cc(-c2nc3c4c(nc(OC[C@@]56CCCN5C[C@H](F)C6)nc4c2F)N2C[C@H]4CC[C@H](N4)[C@H]2[C@H](C)O3)c1C(F)(F)F [Compound 16, 3-((5S,5aS,6S,9R)-1-fluoro-12-(((2R,7aS)-2-fluorotetrahydro-1H-pyrrolizin-7a(5H)-yl)methoxy)-5-methyl-5a,6,7,8,9,10-hexahydro-5H-4-oxa-3,10a,11,13,14-pentaaza-6,9-methanonaphtho[1,8-ab]heptalen-2-yl)-5-methyl-4-(trifluoromethyl)aniline] | 0.668 | 0.138 nM | 0.484 nM | 20 | – |
| Cc1cc(N)nc(-c2nc3c4c(nc(OC[C@@]56CCCN5C[C@H](F)C6)nc4c2F)N2C[C@H]4CC[C@H](N4)[C@H]2[C@H](C)O3)c1C(F)(F)F [Compound 43, 6-((5S,5aS,6S,9R)-1-Fluoro-12-(((2R,7aS)-2-fluorotetrahydro-1H-pyrrolizin-7a(5H)-yl)methoxy)-5-methyl-5a,6,7,8,9,10-hexahydro-5H-4-oxa-3,10a,11,13,14-pentaaza-6,9-methanonaphtho[1,8-ab]heptalen-2-yl)-4-methyl-5-(trifluoromethyl)pyridin-2-amine] | 16.6 | 0.598 nM | – | 20 | – |
| Cc1cc(N)nc(-c2nc3c4c(nc(OC[C@@]56CCCN5C[C@H](F)C6)nc4c2F)N2C[C@H]4CC[C@H](N4)[C@H]2CO3)c1C(F)(F)F [Compound 44, 6-((5aS,6S,9R)-1-fluoro-12-(((2R,7aS)-2-fluorotetrahydro-1H-pyrrolizin-7a(5H)-yl)methoxy)-5a,6,7,8,9,10-hexahydro-5H-4-oxa-3,10a,11,13,14-pentaaza-6,9-methanonaphtho[1,8-ab]heptalen-2-yl)-4-methyl-5-(trifluoromethyl)pyridin-2-amine] | 59 | 0.68 nM | – | 20 | – |
| C#Cc1cccc2cc(O)cc(-c3nc4c5c(ncnc5c3F)N3C[C@H]5CC[C@H](N5)[C@H]3[C@H](C)O4)c12 [Compound 54, 5-ethynyl-4-((5S,5aS,6S,9R)-1-fluoro-5-methyl-5a,6,7,8,9,10-hexahydro-5H-4-oxa-3,10a,11,13,14-pentaaza-6,9-methanonaphtho[1,8-ab]heptalen-2-yl)naphthalen-2-ol] | 1980 | 17.8 nM | – | 20 | – |
| C#Cc1c(F)ccc2cccc(-c3nc4c5c(ncnc5c3F)N3C[C@H]5CC[C@H](N5)[C@H]3[C@H](C)O4)c12 [Compound 56, (5S,5aS,6S,9R)-2-(8-ethynyl-7-fluoronaphthalen-1-yl)-1-fluoro-5-methyl-5a,6,7,8,9,10-hexahydro-5H-4-oxa-3,10a,11,13,14-pentaaza-6,9-methanonaphtho[1,8-ab]heptalene] | 46500 | 942 nM | – | 20 | – |
| C[C@@H]1Oc2nc(-c3cc(N)c(F)cc3C(F)(F)F)c(F)c3nc(OC[C@]45CCN4CC(F)(F)C5)nc(c23)N2C[C@H]3CC[C@H](N3)[C@@H]12 [Compound 71, 5-((5S,5aS,6S,9R)-12-(((R)-3,3-Difluoro-1-azabicyclo[3.2.0]heptan-5-yl)methoxy)-1-fluoro-5-methyl-5a,6,7,8,9,10-hexahydro-5H-4-oxa-3,10a,11,13,14-pentaaza-6,9-methanonaphtho[1,8-ab]heptalen-2-yl)-2-fluoro-4-(trifluoromethyl)aniline] | – | 3.51 nM | 313 nM | 20 | – |
| C[C@@H]1Oc2nc(-c3cnccc3C(F)(F)F)c(F)c3nc(OC[C@]45CCN4CC(F)(F)C5)nc(c23)N2C[C@H]3CC[C@H](N3)[C@@H]12 [Compound 78, (5S,5aS,6S,9R)-12-(((R)-3,3-Difluoro-1-azabicyclo[3.2.0]heptan-5-yl)methoxy)-1-fluoro-5-methyl-2-(4-(trifluoromethyl)pyridin-3-yl)-5a,6,7,8,9,10-hexahydro-5H-4-oxa-3,10a,11,13,14-pentaaza-6,9-methanonaphtho[1,8-ab]heptalene] | – | 867 nM | 200000 nM | 20 | – |
| C#Cc1c(F)ccc2cc(O)cc(-c3nc4c5c(nc(OC[C@@]67CCCN6C[C@H](F)C7)nc5c3F)N3C[C@H]5CC[C@H](N5)[C@H]3CO4)c12 [Compound 81, 5-Ethynyl-6-fluoro-4-((5aS,6S,9R)-1-fluoro-12-(((2R,7aS)-2-fluorotetrahydro-1H-pyrrolizin-7a(5H)-yl)methoxy)-5a,6,7,8,9,10-hexahydro-5H-4-oxa-3,10a,11,13,14-pentaaza-6,9-methanonaphtho[1,8-ab]heptalen-2-yl)naphthalen-2-ol] | – | 0.085 nM | 0.448 nM | 20 | – |
| C[C@@H]1Oc2nc(-c3nc(N)c(F)cc3C(F)(F)F)c(F)c3nc(OC[C@@]45CCCN4C[C@H](F)C5)nc(c23)N2C[C@H]3CC[C@H](N3)[C@@H]12 [Compound 84, 3-Fluoro-6-((5S,5aS,6S,9R)-1-fluoro-12-(((2R,7aS)-2-fluorotetrahydro-1H-pyrrolizin-7a(5H)-yl)methoxy)-5-methyl-5a,6,7,8,9,10-hexahydro-5H-4-oxa-3,10a,11,13,14-pentaaza-6,9-methanonaphtho[1,8-ab]heptalen-2-yl)-5-(trifluoromethyl)pyridin-2-amine] | – | 24.9 nM | 4310 nM | 20 | – |
| C[C@@H]1Oc2nc(-c3nc(N)ccc3C(F)(F)F)c(F)c3nc(OC[C@@]45CCCN4C[C@H](F)C5)nc(c23)N2C[C@H]3CC[C@H](N3)[C@@H]12 [Compound 85, 6-((5S,5aS,6S,9R)-1-fluoro-12-(((2R,7aS)-2-fluorotetrahydro-1H-pyrrolizin-7a(5H)-yl)methoxy)-5-methyl-5a,6,7,8,9,10-hexahydro-5H-4-oxa-3,10a-11,13,14-pentaaza-6,9-methanonaphtho[1,8-ab]heptalen-2-yl)-5-(trifluoromethyl)pyridin-2-amine] | – | 3.28 nM | 678 nM | 20 | – |
| C[C@@H]1Oc2nc(-c3nc(N)c(F)cc3C(F)(F)F)c(F)c3nc(OC[C@]45CCN4CC(F)(F)C5)nc(c23)N2C[C@H]3CC[C@H](N3)[C@@H]12 [Compound 87, 6-((5S,5aS,6S,9R)-12-(((R)-3,3-Difluoro-1-azabicyclo[3.2.0]heptan-5-yl)methoxy)-1-fluoro-5-methyl-5a,6,7,8,9,10-hexahydro-5H-4-oxa-3,10a,11,13,14-pentaaza-6,9-methanonaphtho[1,8-ab]heptalen-2-yl)-3-fluoro-5-(trifluoromethyl)pyridin-2-amine] | – | 68.9 nM | 16100 nM | 20 | – |
| Cc1cc(N)c(F)c(-c2nc3c4c(nc(OC[C@@]56CCN5CC(F)(F)C6)nc4c2F)N2C[C@H]4CC[C@H](N4)[C@H]2[C@H](C)O3)c1C(F)(F)F [Compound 92, 3-((5S,5aS,6S,9R)-12-(((S)-3,3-Difluoro-1-azabicyclo[3.2.0]heptan-5-yl)methoxy)-1-fluoro-5-methyl-5a,6,7,8,9,10-hexahydro-5H-4-oxa-3,10a,11,13,14-pentaaza-6,9-methanonaphtho[1,8-ab]heptalen-2-yl)-2-fluoro-5-methyl-4-(trifluoromethyl)aniline] | – | 0.76 nM and 1.01 nM | 34.9 nM and 148 nM | – | 8.13 |
